Data taken from patent publication US4098706A, “Lubricating agents for thermoplastic materials and process for preparing the same” (Sapchim-Fournier-Cimag, priority 1975, dated 1978).
Where two headings read alike, the source gives them in different places.

Assays:
[1] = test system: mice
[2] = Extractibility of the lubricating agents from bottles by solvents simulating food and drink, 49° C; assay type: physicochemical
Procedure: The lubricating agents according to the invention may be used to lubricate polymers which are intended for the manufacture of packaging and containers for food and drink and its was therefore necessary, in spite of their low toxicity, to determine their extractibility by various solvents simulating food and drink, namely water, ethanol-water 50/50, an aqueous solution of acetic acid (3%) and heptane.
This study was carried out in accordance with the requirements of the Food and Drug Administration (U.S.A.).
The extractions were performed in semi-rigid bottles, prepared with the resins given hereabove.
The ratio of the volume of solvent to the surface of plastic material exposed to extraction was about […], taking into account the geometric characteristics of the bottles.
Heating--: A thermostated oven for the non-inflammable solvents (water and acetic acid) A thermostated water-bath for the inflammable solvents (alcohol and heptane)
This was, in each case, intentionally longer than that which would have given stable maximum values.
The following periods of duration were in fact, observed:
Acetic acid (3%) : 15 days
Aqueous ethanol: 3 to 4 days
The quantity of lubricating agent extracted was determined by thin layer chromatography, by comparison with a standard scale.
A blank trial was carried out with control bottles containing no lubricating agent and a purely negative result was obtained.
The amounts of lubricating agent determined are expressed in μg/ml of extraction solvent or, which is the same, per cm^2 of surface submitted to extraction.

[3] = Tendency for bubbles to appear in the polyvinyl chlorides containing the lubricating agents; assay type: physicochemical
Description: It is known that a release of gaz during preparation of the resin and particularly at the moment of extrusion or blowing is a grave disadvantage when manufacturing objects such as bottles because it may lead to the formation of visible bubbles in the plastic.

[4] = Formula 914, acetic acid (3%), 15 days
[5] = Formula 914, aqueous ethanol, 3 to 4 days
[6] = Formula 913, acetic acid (3%), 15 days
[7] = Formula 913, aqueous ethanol, 3 to 4 days
[8] = Formula 915, acetic acid (3%), 15 days
[9] = Formula 915, aqueous ethanol, 3 to 4 days

**Q.** With CCCCCCCCCCCCCCCCCCCCCC(=O)O [calcium behenate] as the compound, how does the Toxic symptoms ([1]; mouse, in vivo, po) read?
**A.** Its Toxic symptoms is “none”.

**Q.** Which Toxic symptoms ([1]; mouse, in vivo, po) does the source give for CCCCCCCCCCCCCCCCCCCCCC(=O)OCCCCOC(=O)CCCCCCCCCCCCCCCCCCCCC [Compound 7, 1,4-butanediol dibehenate] here?
**A.** The Toxic symptoms was “none”.

**Q.** What about the “Amount of lubricating agent extracted” value [2, 4] of the same compound?
**A.** The value was 0.13 µg/mL.

**Q.** And the “Amount of lubricating agent extracted” value [2, 5]?
**A.** The value was 0.13 µg/mL.

**Q.** And the “Amount of lubricating agent extracted” value ([2]; Formula 914, heptane, 3 days)?
**A.** Its value is 0.8 µg/mL.

**Q.** And the “Amount of lubricating agent extracted” value ([2]; Formula 914, water, 15 days)?
**A.** Its value is 0.13 µg/mL.

**Q.** With CCCCCCCCCCCCCCCCCCCCCC(=O)OCCOCCOCCOC(=O)CCCCCCCCCCCCCCCCCCCCC [Compound 4, Triethyleneglycol dibehenate] as the compound, how does the Toxic symptoms ([1]; mouse, in vivo, po) read?
**A.** Its Toxic symptoms is “none”.

**Q.** Which Toxic symptoms ([1]; mouse, in vivo, po) does the source give for CCCCCCCCCCCCCCCCCCCCCC(=O)OCC(COC(=O)CCCCCCCCCCCCCCCCCCCCC)(COC(=O)CCCCCCCCCCCCCCCCCCCCC)COC(=O)CCCCCCCCCCCCCCCCCCCCC [Compound 9, Pentaerythrite tetrabehenate] here?
**A.** Its Toxic symptoms is “none”.

**Q.** And the “Observations (release of gas)” value [3]?
**A.** Its value is “Slight release”.

**Q.** What about the “Temperature at which bubbles appear” value [3] of the same compound?
**A.** Its value is 195 °C.

**Q.** And the “Amount of lubricating agent extracted” value [2, 6]?
**A.** Its value is 0.26 µg/mL.

**Q.** What about the “Amount of lubricating agent extracted” value [2, 7] of the same compound?
**A.** Its value is 0.13 µg/mL.

**Q.** And the “Amount of lubricating agent extracted” value ([2]; Formula 913, heptane, 3 days)?
**A.** Its value is 0.26 µg/mL.

**Q.** What about the “Amount of lubricating agent extracted” value ([2]; Formula 913, water, 15 days) of the same compound?
**A.** Its value is 0.13 µg/mL.

**Q.** For CCCCCCCCCCCCCCCCCCCCCC(=O)OCC(C)OC(=O)CCCCCCCCCCCCCCCCCCCCC (stereo not shown) [Compound 1, 1,2-propanediol dibehenate], which Toxic symptoms ([1]; mouse, in vivo, po) is on record?
**A.** The Toxic symptoms was “none”.

**Q.** What about the “Observations (release of gas)” value [3] of the same compound?
**A.** The value was “No release”.

**Q.** And the “Temperature at which bubbles appear” value [3]?
**A.** Its value is 250 °C.

**Q.** What about the “Amount of lubricating agent extracted” value [2, 8] of the same compound?
**A.** The value was 0.13 µg/mL.

**Q.** What about the “Amount of lubricating agent extracted” value [2, 9] of the same compound?
**A.** Its value is 0.13 µg/mL.

**Q.** What about the “Amount of lubricating agent extracted” value ([2]; Formula 915, heptane, 3 days) of the same compound?
**A.** The value was 0.26 µg/mL.

**Q.** What about the “Amount of lubricating agent extracted” value ([2]; Formula 915, water, 15 days) of the same compound?
**A.** Its value is 0.13 µg/mL.

**Q.** For CCCCCCCCCCCCCCCCCCCCCC(=O)OCCSCCOC(=O)CCCCCCCCCCCCCCCCCCCCC [Compound 2, Thiodiglycol dibehenate], which Toxic symptoms ([1]; oral, mice) is on record?
**A.** Its Toxic symptoms is “none”.

**Q.** And the “Amount of lubricating agent extracted” value [2, 6]?
**A.** The value was 0.4 µg/mL.

**Q.** And the “Amount of lubricating agent extracted” value [2, 7]?
**A.** Its value is 0.6 µg/mL.

**Q.** And the “Amount of lubricating agent extracted” value ([2]; Formula 913, heptane, 3 days)?
**A.** The value was 1.3 µg/mL.

**Q.** What about the “Amount of lubricating agent extracted” value ([2]; Formula 913, water, 15 days) of the same compound?
**A.** The value was 0.13 µg/mL.

**Q.** And the “Amount of lubricating agent extracted” value [2, 4]?
**A.** The value was 0.13 µg/mL.

**Q.** What about the “Amount of lubricating agent extracted” value [2, 5] of the same compound?
**A.** Its value is 0.13 µg/mL.

**Q.** And the “Amount of lubricating agent extracted” value ([2]; Formula 914, heptane, 3 days)?
**A.** The value was 0.8 µg/mL.

**Q.** What about the “Amount of lubricating agent extracted” value ([2]; Formula 914, water, 15 days) of the same compound?
**A.** Its value is 0.13 µg/mL.

**Q.** What about the “Amount of lubricating agent extracted” value [2, 8] of the same compound?
**A.** The value was 0.13 µg/mL.

**Q.** And the “Amount of lubricating agent extracted” value [2, 9]?
**A.** Its value is 0.13 µg/mL.

**Q.** What about the “Amount of lubricating agent extracted” value ([2]; Formula 915, heptane, 3 days) of the same compound?
**A.** The value was 0.6 µg/mL.

**Q.** What about the “Amount of lubricating agent extracted” value ([2]; Formula 915, water, 15 days) of the same compound?
**A.** The value was 0.13 µg/mL.

**Q.** With CCCCCCCCCCCCCCCCCCCCCC(=O)OCC(COC(=O)CCCCCCCCCCCCCCCCCCCCC)OC(=O)CCCCCCCCCCCCCCCCCCCCC [Compound 8, Glyceryl tribehenate] as the compound, how does the Toxic symptoms ([1]; mouse, in vivo, po) read?
**A.** Its Toxic symptoms is “none”.

**Q.** And the “Observations (release of gas)” value [3]?
**A.** The value was “Slight release”.

**Q.** What about the “Temperature at which bubbles appear” value [3] of the same compound?
**A.** The value was 230 °C.
